# Assay results: patent EP4789662A1, “POWDER FOR INHALATION” (Nagase Viita Co., Ltd., priority 2023, dated 2025)
# What was measured:
# [1] = system: chronic obstructive pulmonary disease (COPD); assay: Animal test 1: OVA-induced COPD in rats, lung tissue and BALF infiltrating cells; format: in vivo; conditions: OVA-challenge; p.o. 60 mg/kg; BALF 24 h after OVA; Mean±S.E. (n=4)
# Experimental: In order to evaluate the pharmacological effect of the mT/PL-RP (Example 1) via intratracheal administration, chronic obstructive pulmonary disease (COPD) was induced in rats, and the effect was compared with the effect via oral administration. Ovalbumin (OVA, Sigma-Aldrich) was intraperitoneally administered three times at seven-day intervals. Next day, the mT/PL-RP (Example 1) (5 mg-PL/kg) was intratracheally administered, or the PL (Comparative Example 2) (60 mg/kg) was orally administered. One hour after the administration, inflammation was caused by intratracheally administering micronized OVA powder to induce COPD. Twenty-four hours after the inflammation caused by OVA administration, the lungs were excised and bronchoalveolar lavage fluid (BALF) was collected. The lung tissue was stained with peroxidase by a standard method and subsequently observed. […] FIG. 8 and Table 6 show the result.
# [2] = Animal test 2: amount of PL transferred into blood (pharmacokinetics); format: in vivo; conditions: rat, po, rats, p.o. 60 mg/kg, Mean±S.E. (n=4-5)
# Experimental: The amount of PL transferred into blood was evaluated in oral administration and intratracheal administration. The blood PL concentrations up to 12 hours after administration were measured over time in a group of rats having undergone intratracheal administration of the mT/PL-RP (Example 1) (5 mg-PL/kg) and in a group of rats having undergone oral administration of the PL (Comparative Example 2) (60 mg/kg). FIG. 9 and Table 7 show the results.
compound,measurement,setting,value
"O=C(Nc1cccc2c(=O)cc(-c3nnn[nH]3)oc12)c1ccc(OCCCCc2ccccc2)cc1 [Crystalline PL, pranlukast]","Inflammatory cells in BALF, Eosinophils",[1],1.5 ± 0.6 × 10^4 cells/mL
same,"Inflammatory cells in BALF, Macrophages",[1],3.1 ± 1.3 × 10^4 cells/mL
same,"Inflammatory cells in BALF, Neutrophils",[1],11.5 ± 2.7 × 10^4 cells/mL
same,Cmax,[2],250 ± 160 ng/mL
same,Tmax,[2],1.6 ± 0.6 h
